Laboratory results: patent US6534496B1, “Thermogenic composition and benzazepine thermogenics” (Takeda Chemical Industries, Inc., priority 1997, dated 2003)
Counter-ions that a name gives are not always drawn.

SMILES | melting point
Cc1ccccc1CN1CCc2ccc(C(=O)CCCC3CCN(Cc4ccccc4C(=O)N4CCN(C)CC4)CC3)cc2CC1 (as salt: hydrochloride) [Example 313, 4-[1-[[2-[(4-methyl-1-pipiperazinyl)carbonyl]phenyl]methyl]-4-piperidinyl]-1-[3[(2-methylphenyl)methyl]-2,3,4,5-tetrahydro-1H-3-benzazepin-7-yl]-1-butanone Trihydrochloride] | 186 to 193 °C (dec.)
O=C(CCCC1CCN(Cc2ccc([N+](=O)[O-])cc2)CC1)c1ccc2c(c1)CCN(Cc1ccccc1)CC2 (as salt: hydrochloride) | 242 to 247 °C (dec.)
O=C(CCCC1CCN(Cc2cccc(Cl)c2)CC1)c1ccc2c(c1)CCN(Cc1ccccc1)CC2 (as salt: hydrochloride) | 230 to 234 °C (dec.)
Cc1cccc(CN2CCC(CCC(=O)c3ccc4c(c3)CN(Cc3ccc(F)cc3)CCO4)CC2)c1 (as salt: hydrochloride) [Example 79, 1-[4-[(4-Fluorophenyl)methyl]-2,3,4,5-tetrahydro-1,4-benzoxazepin-7-yl]-3-[1-[(3-methylphenyl)methyl]-4-piperidinyl]-1-propanone Dihydrochloride] | 223 to 225 °C
CCOC(=O)c1ccc(CN2CCC(CCC(=O)c3ccc4c(c3)CCN(Cc3ccc(F)cc3)CC4)CC2)cc1 (as salt: hydrochloride) | 212 to 218 °C (dec.)
O=C(CCC1CCNCC1)c1ccc2c(c1)CN(Cc1ccc(F)cc1)CCC2 (as salt: hydrochloride) | 245 to 247 °C
Cl.Cl.O=C(CC1CCN(Cc2ccc(F)cc2)CC1)c1ccc2c(c1)CCN(Cc1ccccc1)CC2 | 243 to 247 °C (dec.)
CC(=O)N1CCc2ccc(C(=O)CCCC3CCN(Cc4ccccc4C)CC3)cc2CC1.Cl | 93 to 94 °C
Cc1cccc(CN2CCC(CCCC(=O)c3ccc4c(c3)CCN(Cc3ccccc3C)CC4)CC2)c1 (as salt: hydrochloride) | 179 to 182 °C
Cc1ccc(CN2CCC(CCCC(=O)c3ccc4c(c3)CCN(Cc3ccccc3Cl)CC4)CC2)cc1 (as salt: hydrochloride) | 174 to 178 °C
O=C(CCC1CCN(Cc2ccccc2C(F)(F)F)CC1)c1ccc2c(c1)CN(Cc1ccc(F)cc1)CCO2 (as salt: hydrochloride) | 203 to 204 °C
Cc1ccc(CN2CCC(CCC(=O)c3ccc4c(c3)CN(Cc3ccc(F)cc3)CCO4)CC2)cc1 (as salt: hydrochloride) | 240 to 242 °C
O=C(CCC1CCNCC1)c1ccc2c(c1)CCN(Cc1ccccc1)CC2 [Example 24, 1-[3-(phenylmethyl)-2,3,4,5-tetrahydro-1H-3-benzazepin-7-yl]-3-(4-piperidinyl)-1-propanone] | 134 to 137 °C
O=C(CCC1CCN(Cc2cccc(F)c2)CC1)c1ccc2c(c1)CN(Cc1ccc(F)cc1)CCO2 (as salt: hydrochloride) [Example 81, 3-[1-[(3-Fluorophenyl)methyl]-4-piperidiny]-1-[4-[(4-fluorophenyl)methyl]-2,3,4,5-tetrahydro-1,4-benzoxazepin-7-yl]-1-propanone Dihydrochloride] | 228 to 231 °C
O=C(CCCC1CCN(Cc2cccc(O)c2)CC1)c1ccc2c(c1)CCN(Cc1ccccc1)CC2 [Example 157, 4-[1-[(3-Hydroxyphenyl)methyl]-4-piperidinyl]-1-[3-(phenylmethyl)-2,3,4,5-tetrahydro-1H-3-benzazepin-7-yl]-1-butanone] | 88 to 94 °C
O=C(CCC1CCN(Cc2cccc(Cl)c2)CC1)c1ccc2c(c1)CN(Cc1ccc(F)cc1)CCO2 (as salt: hydrochloride) [Example 80, 3-[1-[(3-Chlorophenyl)methyl]-4-piperidiny]-1-[4-[(4-fluorophenyl)methyl]-2,3,4,5-tetrahydro-1,4-benzoxazepin-7-yl]-1-propanone Dihydrochloride] | 224 to 225 °C
O=C(CCC1CCNCC1)c1ccc2c(c1)CCN(Cc1ccc(F)cc1)CC2 (as salt: hydrochloride) | 225 to 227 °C (dec.)
O=C(CCC1CCN(Cc2ccccc2)CC1)c1ccc2c(c1)CCN(Cc1ccc(F)cc1)CC2 (as salt: hydrochloride) | 217 to 220 °C
O=C(CCC1CCN(Cc2cc([N+](=O)[O-])cc([N+](=O)[O-])c2)CC1)c1ccc2c(c1)CN(Cc1ccccc1)CCO2 (as salt: hydrochloride) | 232 °C (dec.)
CCOC(=O)C(C)(C)c1ccc(CN2CCC(CCC(=O)c3ccc4c(c3)CCN(Cc3ccc(F)cc3)CC4)CC2)cc1 (as salt: hydrochloride) [Example 43, Ethyl 2-methyl-2-[4-[[4-[3-[3-[(4-fluorophenyl)methyl]-2,3,4,5-tetrahydro-1H-3-benzazepin-7-yl]-3-oxopropyl]-1-piperidinyl]methyl]phenyl]propionate Dihydrochloride] | 228 to 231 °C (dec.)
COc1ccc(CN2CCc3cc(C(=O)CCC4CCN(Cc5ccccc5)CC4)ccc32)cc1.O=C(O)/C=C/C(=O)O | 95 to 98 °C

SMILES | melting point
O=C(CCC1CCN(Cc2ccc(C(F)(F)F)cc2)CC1)c1ccc2c(c1)CN(Cc1ccc(F)cc1)CCO2 (as salt: hydrochloride) [Example 88, 1-[4-[(4-Fluorophenyl)methyl]-2,3,4,5-tetrahydro-1,4-benzoxazepin-7-yl]-3-[1-[[4-(trifluoromethyl)phenyl]methyl]-4-piperidinyl]-1-propanone Dihydrochloride] | 234 to 237 °C
O=C(O)c1cccc(CN2CCC(CCCC(=O)c3ccc4c(c3)CCN(Cc3ccccc3)CC4)CC2)c1 (as salt: salt) [Example 158, 3-[[4-[4-[3-(Phenylmethyl)-2,3,4,5-tetrahydro-1H-benzazepin-7-yl]-4-oxobutyl)-1-piperidinyl]methyl]benzoic acid triethylamine Salt] | 150 to 158 °C
O=C(O)COc1cccc(CN2CCC(CCC(=O)c3ccc4c(c3)CN(Cc3ccc(F)cc3)CCO4)CC2)c1 (as salt: hydrochloride) | 201 to 204 °C
O=C(CCC1CCN(Cc2ccc(O)cc2)CC1)c1ccc2c(c1)CCN(Cc1ccc(F)cc1)CC2 (as salt: hydrochloride) | 166 to 169 °C
COc1ccc(CN2CCc3ccc(C(=O)CCC4CCN(C(=O)c5ccc(-c6ccccc6)cc5)CC4)cc3CC2)cc1.Cl | 212 to 215 °C
CC(=O)N1CCC(CCC(=O)c2ccc3c(c2)CN(Cc2ccccc2)c2ccccc2CC3)CC1.Cl | 155 to 158 °C
O=C(CCC1CCN(Cc2ccc(F)cc2)CC1)c1ccc2c(c1)CN(Cc1ccccc1)CCO2 (as salt: hydrochloride) [Example 8, 3-[1-[(4-Fluorophenyl)methyl]-4-piperidinyl]-1-[4-(phenylmethyl)-2,3,4 5-tetrahydro-1,4-benzoxazepin-7-yl]-1-propanone Dihydrochloride] | 212 to 214 °C
O=C(CCC1CCN(Cc2cccc(F)c2)CC1)c1ccc2c(c1)CN(Cc1ccccc1)CCO2 (as salt: hydrochloride) | 241 to 243 °C
Cl.Cl.O=C(CCCC1CCN(Cc2ccccc2)CC1)c1ccc2c(c1)CCN(Cc1ccccc1)CC2 | 220 to 222 °C (dec.)
O=C(CCCC1CCN(Cc2ccccc2Cl)CC1)c1ccc2c(c1)CCN(Cc1ccccc1)CC2 (as salt: hydrochloride) [Example 178, 4-[1-[(2-Chlorophenyl)methyl]-4-piperidinyl]-1-[3-(phenylmethyl)-2,3,4,5-tetrahydro-1H-3-benzazepin-7-yl]-1-butanone Dihydrochloride] | 226 to 229 °C (dec.)
N#Cc1cccc(CN2CCc3ccc(C(=O)CCCC4CCN(Cc5ccccc5Cl)CC4)cc3CC2)c1 [Example 267, 4-[1-[(2-Chlorophenyl)methyl]-4-piperidinyl]-1-[3-[(3-cyanophenyl)methyl]-2,3,4,5-tetrahydro-1H-3-benzazepin-7-yl]-1-butanone] | 121 to 122 °C
O=C(CCC1CCN(Cc2ccncc2)CC1)c1ccc2c(c1)CN(Cc1ccccc1)CCO2 (as salt: hydrochloride) | 243 to 245 °C
O=C(CCCC1CCN(Cc2cccc(F)c2)CC1)c1ccc2c(c1)CCN(Cc1ccccc1)CC2 (as salt: hydrochloride) | 245 to 248 °C (dec.)
Cc1ccccc1CN1CCC(CCC(=O)c2ccc3c(c2)CN(Cc2ccc(F)cc2)CCO3)CC1 (as salt: hydrochloride) [Example 83, 1-[4-[(4-Fluorophenyl)methyl]-2,3,4,5-tetrahydro-1,4-benzoxazepin-7-yl]-3-[1-[(2-methylphenyl)methy]-4-piperidinyl]-1-propanone Dihydrochloride] | 216 to 219 °C
Cc1ccc(CN2CCC(CCCC(=O)c3ccc4c(c3)CCN(Cc3cccc(Cl)c3)CC4)CC2)cc1 (as salt: hydrochloride) [Example 202, 1-[3-[(3-Chlorophenyl)methyl]-2,3,4,5-tetprahydro-1H-3-benzazepin-7-yl]-4-[1-[(4-methylphenyl)methyl]-4-piperidinyl]-1-butanone Dihydrochloride] | 195 to 198 °C
Cl.O=C(CCC1CCN(C(=O)c2ccccc2)CC1)c1ccc2c(c1)CCN(Cc1ccccc1)CC2 | 118 to 121 °C
Cc1ccc(CN2CCC(CCCC(=O)c3ccc4c(c3)CCN(Cc3ccc([N+](=O)[O-])cc3)CC4)CC2)cc1.Cl.Cl | 208 to 211 °C
CCOC(=O)COc1cccc(CN2CCC(CCC(=O)c3ccc4c(c3)CN(Cc3ccc(F)cc3)CCO4)CC2)c1 (as salt: hydrochloride) [Example 103, Ethyl 2-[3-[[4-[3-[4-[(4-fluorophenyl)methyl]-2,3,4,5-tetrahydro-1,4-benzoxazepin-7-yl]-3-oxopropyl]-1-piperidinyl]methyl]phenoxy]ethanoate Dihydrochloride] | 200 to 203 °C
CCOC(=O)C1(C(=O)OCC)Oc2ccc(CN3CCC(CCC(=O)c4ccc5c(c4)CN(Cc4ccc(F)cc4)CCO5)CC3)cc2O1 (as salt: hydrochloride) | 199 °C (dec.)
Cc1ccc(CN2CCC(CCCC(=O)c3ccc4c(c3)CCN(Cc3ccccc3)CC4)CC2)cc1.Cl.Cl | 207 to 210 °C (dec.)
Cl.Cl.O=C(CCCC1CCN(Cc2ccc(F)cc2)CC1)c1ccc2c(c1)CCN(Cc1ccccc1)CC2 | 226 to 229 °C (dec.)
